Data taken from patent publication US20060069132A1, “Azolecarboxamide herbicides” (priority 2004, published 2006).

Tests used:
[1] = system: barnyardgrass; assay: Test B flooded paddy test; format: in vivo, Echinochloa crus-galli; conditions: 1000 g ai/ha, visual rating, scale 0 to 100 (0 no effect, 100 complete control), 13 to 15 days
Summary of the method: (§1)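 Read-out: visual comparison with controls, scored 0 to 100, where 100 means complete control and 0 no effect. Formulated chemicals were applied postemergence to plants 2–18 cm tall (1- to 4-leaf), or to flooded-paddy plants at the 2-leaf stage, then held 13 to 15 days under glass.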

[2] = system: wheat; assay: Test B postemergence herbicide test; format: in vivo, Triticum aestivum; set-up: key to Wheat plant response rating: 0 = no effect, 100 = complete control; conditions: postemergence, 500 g ai/ha; visual rating, scale 0 (no effect) to 100 (complete control)
Summary of the method: (§2)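 Greenhouse test; postemergence application to plants at 1–4 leaves (2–18 cm); paddy species at 2 leaves; evaluated visually vs controls at 13–15 days; scale 0–100 (100 = complete control).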

[3] = system: barnyardgrass; assay: Test B pre-/postemergence herbicide test; format: in vivo, Echinochloa crus-galli; conditions: for Plant response rating, Barnyardgrass: preemergence; for Barnyardgrass plant response rating: postemergence, visual rating, scale 0 (no effect) to 100 (complete control)
Summary of the method: (§3)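 Pre: seeds sown, then sprayed. Post: 1–4-leaf plants (2–18 cm) sprayed at the same time. Paddy: flooded, treated at 2-leaf stage. Formulation: non-phytotoxic solvent with surfactant. Greenhouse 13–15 days; visual 0–100 score relative to controls.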

[4] = system: rice; assay: Test B flooded paddy test; format: in vivo, Oryza sativa; conditions: 1000 g ai/ha, visual rating, scale 0 to 100 (0 no effect, 100 complete control), 13 to 15 days
Summary of the method: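 Treated at 2-leaf (paddy) or 1–4-leaf, 2–18 cm (postemergence); greenhouse 13–15 d; visual score vs control, 0 none to 100 complete control; dash = not tested.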

[5] = system: large crabgrass; assay: Test B pre-/postemergence herbicide test; format: in vivo, Digitaria sanguinalis; conditions: for Plant response rating, Crabgrass, Large: preemergence; for Crabgrass, Large plant response rating: postemergence, visual rating, scale 0 (no effect) to 100 (complete control)
Summary of the method: (§4)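 Herbicidal effect was judged by eye on a 0–100 scale after plants stood 13 to 15 days in the greenhouse following pre- or postemergence treatment with surfactant-containing formulations.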

[6] = system: corn; assay: Test B pre-/postemergence herbicide test; format: in vivo, Zea mays; conditions: for Plant response rating, Corn: preemergence; for Corn plant response rating: postemergence, visual rating, scale 0 (no effect) to 100 (complete control)
Summary of the method: as §4

[7] = system: rice; assay: Test C flooded paddy test; format: in vivo, Oryza sativa
Summary of the method: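 Injury scored visually against controls on a 0 (no effect) to 100 (complete control) scale, 12 to 14 days after treatment in greenhouse. Flooded paddy plants treated at 2-leaf stage; postemergence plants at 1- to 4-leaf stage, 2 to 18 cm tall.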

[8] = system: ducksalad; assay: Test B flooded paddy test; format: in vivo, Heteranthera limosa; conditions: 1000 g ai/ha, visual rating, scale 0 to 100 (0 no effect, 100 complete control), 13 to 15 days
Summary of the method: as §1

[9] = system: morningglory; assay: Test B pre-/postemergence herbicide test; format: in vivo, Ipomoea coccinea; conditions: for Plant response rating, Morningglory: preemergence; for Morningglory plant response rating: postemergence, visual rating, scale 0 (no effect) to 100 (complete control)
Summary of the method: as §3

[10] = system: rice; assay: Test B pre-/postemergence herbicide test; format: in vivo, Oryza sativa; conditions: preemergence
Summary of the method: as §4

[11] = system: Surinam grass; assay: Test B pre-/postemergence herbicide test; format: in vivo, Urochloa decumbens; conditions: for Plant response rating, Surinam Grass: preemergence; for Surinam Grass plant response rating: postemergence, visual rating, scale 0 (no effect) to 100 (complete control)
Summary of the method: as §4

[12] = system: blackgrass; assay: Test B postemergence herbicide test; format: in vivo, Alopecurus myosuroides; conditions: postemergence, visual rating, scale 0 (no effect) to 100 (complete control)
Summary of the method: as §1

[13] = system: pigweed; assay: Test B pre-/postemergence herbicide test; format: in vivo, Amaranthus retroflexus; conditions: for Plant response rating, Pigweed: preemergence; for Pigweed plant response rating: postemergence, visual rating, scale 0 (no effect) to 100 (complete control)
Summary of the method: as §4

[14] = system: wild oat; assay: Test B postemergence herbicide test; format: in vivo, Avena fatua; conditions: postemergence, visual rating, scale 0 (no effect) to 100 (complete control)
Summary of the method: as §2

[15] = system: smallflower umbrella sedge; assay: Test C flooded paddy test; format: in vivo, Cyperus difformis
[16] = system: cocklebur; assay: Test B pre-/postemergence herbicide test; format: in vivo, Xanthium strumarium; conditions: for Plant response rating, Cocklebur: preemergence; for Cocklebur plant response rating: postemergence, visual rating, scale 0 (no effect) to 100 (complete control)
Summary of the method: as §3

[17] = system: velvetleaf; assay: Test B pre-/postemergence herbicide test; format: in vivo, Abutilon theophrasti; conditions: for Plant response rating, Velvetleaf: preemergence; for Velvetleaf plant response rating: postemergence, visual rating, scale 0 (no effect) to 100 (complete control)
Summary of the method: as §4

[18] = system: giant foxtail; assay: Test B pre-/postemergence herbicide test; format: in vivo, Setaria faberi; conditions: for Plant response rating, Foxtail, Giant: preemergence; for Foxtail, Giant plant response rating: postemergence, visual rating, scale 0 (no effect) to 100 (complete control)
Summary of the method: as §4

[19] = system: lambsquarters; assay: Test B pre-/postemergence herbicide test; format: in vivo, Chenopodium album; conditions: for Plant response rating, Lambsquarters: preemergence; for Lambsquarters plant response rating: postemergence, visual rating, scale 0 (no effect) to 100 (complete control)
Summary of the method: as §4

[20] = system: barnyardgrass; assay: Test C flooded paddy test; format: in vivo, Echinochloa crus-galli
Summary of the method: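 Plants were grown to the 1- to 4-leaf stage (2–18 cm) and then treated postemergence, or grown to the 2-leaf stage for the flooded paddy test. They were held in a greenhouse for 12 to 14 days and then scored by eye against controls, where 0 is no effect and 100 is complete control.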

[21] = system: ducksalad; assay: Test C flooded paddy test; format: in vivo, Heteranthera limosa
[22] = system: small flower umbrella sedge; assay: Test B flooded paddy test; format: in vivo, Cyperus difformis; conditions: 1000 g ai/ha, visual rating, scale 0 to 100 (0 no effect, 100 complete control), 13 to 15 days
Summary of the method: as §1

[23] = 500 g ai/ha, visual rating 0-100, 0 no effect, 100 complete control
[24] = 125 g ai/ha, 0 to 100 scale, 0 is no effect, 100 is complete control
[25] = 62 g ai/ha, scale 0 to 100 (0 no effect, 100 complete control)
[26] = 125 g ai/ha, scale 0 to 100 (0 no effect, 100 complete control)
[27] = 250 g ai/ha, scale of 0 to 100, 0 is no effect, 100 is complete control
[28] = 500 g ai/ha, visual rating after 12 to 14 days, scale 0 to 100 (0 no effect, 100 complete control)

CCn1nc(C(C)(C)C)cc1C(=O)Nc1cccc(C(=O)N(C)CC#N)n1 [Compound 158]
Barnyardgrass plant response rating [1]: 70
Wheat plant response rating [2]: 10
Plant response rating, Barnyardgrass [3, 23]: 100
Barnyardgrass plant response rating ([3]; 125 g ai/ha): 0
Barnyardgrass plant response rating ([3]; 500 g ai/ha): 0
Plant response rating, Barnyardgrass [3, 24]: 70
Rice plant response rating [4]: 60
Plant response rating, Crabgrass, Large [5, 23]: 100
Crabgrass, Large plant response rating ([5]; 125 g ai/ha): 30
Crabgrass, Large plant response rating ([5]; 500 g ai/ha): 30
Plant response rating, Crabgrass, Large [5, 24]: 80
Plant response rating, Corn [6, 23]: 60
Corn plant response rating ([6]; 125 g ai/ha): 0
Corn plant response rating ([6]; 500 g ai/ha): 10
Plant response rating, Corn [6, 24]: 0
Rice plant response rating [7, 25]: 0
Rice plant response rating [7, 26]: 0
Rice plant response rating [7, 27]: 35
Plant response rating, Rice [7, 28]: 60
Ducksalad plant response rating [8]: 90
Plant response rating, Morningglory [9, 23]: 50
Morningglory plant response rating ([9]; 125 g ai/ha): 0
Morningglory plant response rating ([9]; 500 g ai/ha): 50
Plant response rating, Morningglory [9, 24]: 50
Plant response rating, Rice [10, 23]: 90
Plant response rating, Rice [10, 24]: 80
Plant response rating, Surinam Grass [11, 23]: 90
Surinam Grass plant response rating ([11]; 125 g ai/ha): 0
Surinam Grass plant response rating ([11]; 500 g ai/ha): 0
Plant response rating, Surinam Grass [11, 24]: 30
Blackgrass plant response rating ([12]; 125 g ai/ha): 20
Blackgrass plant response rating ([12]; 500 g ai/ha): 30
Plant response rating, Pigweed [13, 23]: 100
Pigweed plant response rating ([13]; 125 g ai/ha): 50
Pigweed plant response rating ([13]; 500 g ai/ha): 70
Plant response rating, Pigweed [13, 24]: 100
Oat, Wild plant response rating ([14]; 125 g ai/ha): 30
Oat, Wild plant response rating ([14]; 500 g ai/ha): 40
Sedge, Umbrella plant response rating [15, 25]: 15
Sedge, Umbrella plant response rating [15, 26]: 45
Sedge, Umbrella plant response rating [15, 27]: 70
Plant response rating, Sedge, Umbrella [15, 28]: 80
Plant response rating, Cocklebur [16, 23]: 40
Cocklebur plant response rating ([16]; 125 g ai/ha): 20
Cocklebur plant response rating ([16]; 500 g ai/ha): 70
Plant response rating, Cocklebur [16, 24]: 40
Plant response rating, Velvetleaf [17, 23]: 80
Velvetleaf plant response rating ([17]; 125 g ai/ha): 50
Velvetleaf plant response rating ([17]; 500 g ai/ha): 50
Plant response rating, Velvetleaf [17, 24]: 50
Plant response rating, Foxtail, Giant [18, 23]: 100
Foxtail, Giant plant response rating ([18]; 125 g ai/ha): 0
Foxtail, Giant plant response rating ([18]; 500 g ai/ha): 30
Plant response rating, Foxtail, Giant [18, 24]: 50
Plant response rating, Lambsquarters [19, 23]: 100
Lambsquarters plant response rating ([19]; 125 g ai/ha): 80
Lambsquarters plant response rating ([19]; 500 g ai/ha): 80
Plant response rating, Lambsquarters [19, 24]: 70
Barnyardgrass plant response rating [20, 25]: 0
Barnyardgrass plant response rating ([20]; 125 g ai/ha, scale of 0 to 100, 0 is no effect, 100 is complete control): 0
Barnyardgrass plant response rating [20, 27]: 15
Plant response rating, Barnyardgrass [20, 28]: 35
Ducksalad plant response rating [21, 25]: 0
Ducksalad plant response rating [21, 26]: 0
Ducksalad plant response rating [21, 27]: 20
Plant response rating, Ducksalad [21, 28]: 50
Sedge, Umbrella plant response rating [22]: 80
